The values below come from ChEMBL document CHEMBL1201862, “PubChem BioAssay data set” (2004).

Active and inactive are the calls of the source.

Holding throughout (assay type): functional
Assay [1] has as its target Dual specificity mitogen-activated protein kinase kinase 1 (Homo sapiens, UniProt Q02750). In words: Navigating the Kinome. Panel member name: MAP2K1.
For assay [2], the target named is Serine/threonine-protein kinase PLK3 (Homo sapiens, UniProt Q9H4B4).
Assay [3] deals with RAC-gamma serine/threonine-protein kinase (Homo sapiens, UniProt Q9Y243).
Assay [4] deals with T1, Serine/threonine-protein kinase PLK4 (Homo sapiens, UniProt O00444).
T1 sequence (O00444 whole entry): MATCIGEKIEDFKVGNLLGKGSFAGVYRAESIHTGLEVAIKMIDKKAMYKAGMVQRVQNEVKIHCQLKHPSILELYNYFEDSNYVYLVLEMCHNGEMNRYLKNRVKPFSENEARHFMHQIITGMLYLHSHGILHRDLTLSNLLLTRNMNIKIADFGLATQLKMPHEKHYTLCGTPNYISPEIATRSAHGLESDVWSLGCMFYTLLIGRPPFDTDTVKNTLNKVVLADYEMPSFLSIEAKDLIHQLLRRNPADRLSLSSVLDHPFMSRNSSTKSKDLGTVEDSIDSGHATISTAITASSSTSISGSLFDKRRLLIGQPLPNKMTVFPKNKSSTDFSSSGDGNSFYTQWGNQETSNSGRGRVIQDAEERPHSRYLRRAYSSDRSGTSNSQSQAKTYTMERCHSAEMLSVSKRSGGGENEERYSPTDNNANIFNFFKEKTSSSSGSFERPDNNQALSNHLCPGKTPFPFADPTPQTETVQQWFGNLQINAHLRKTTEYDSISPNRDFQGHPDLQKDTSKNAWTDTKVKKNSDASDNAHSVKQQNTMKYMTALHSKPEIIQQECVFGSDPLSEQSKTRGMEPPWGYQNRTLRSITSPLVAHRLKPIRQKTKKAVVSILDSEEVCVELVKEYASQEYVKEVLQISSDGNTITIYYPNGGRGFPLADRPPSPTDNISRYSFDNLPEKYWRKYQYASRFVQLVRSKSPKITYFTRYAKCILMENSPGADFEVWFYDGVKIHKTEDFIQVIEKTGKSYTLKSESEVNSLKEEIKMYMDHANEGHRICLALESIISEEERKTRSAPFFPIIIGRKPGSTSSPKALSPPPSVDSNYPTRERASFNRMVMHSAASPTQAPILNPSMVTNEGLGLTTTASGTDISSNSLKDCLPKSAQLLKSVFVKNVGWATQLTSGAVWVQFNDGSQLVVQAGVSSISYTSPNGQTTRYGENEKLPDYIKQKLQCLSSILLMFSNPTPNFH

Assay [5] addresses Death-associated protein kinase 3 (Homo sapiens, UniProt O43293).
In assay [6] the target is Serine/threonine-protein kinase pim-1 (Homo sapiens, UniProt P11309).
Assay [7] has as its target Fibroblast growth factor receptor 1 (Homo sapiens, UniProt P11362).
Assay [8] addresses Casein kinase I isoform alpha (Homo sapiens, UniProt P48729).
For assay [9], the target named is Serine/threonine-protein kinase pim-3 (Homo sapiens, UniProt Q86V86).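 Also: value obtained as one member of a broad kinase panel profiling effort.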
Assay [10] deals with Dual specificity tyrosine-phosphorylation-regulated kinase 1B (Homo sapiens, UniProt Q9Y463). In words: Navigating the Kinome. Panel member name: DYRK1B.
Assay [11] concerns the target RAC-alpha serine/threonine-protein kinase (Homo sapiens, UniProt P31749).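 Also: AKT1 affinity measured as one member of a kinome-wide kinase profiling panel.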
For assay [12], the target named is Cyclin-dependent kinase 8 (Homo sapiens, UniProt P49336). The experiment in a line: Navigating the Kinome. Panel member name: CDK8.
Assay [13] concerns the target cAMP-dependent protein kinase catalytic subunit alpha (Homo sapiens, UniProt P17612).
Assay [14] addresses Dual specificity protein kinase CLK4 (Homo sapiens, UniProt Q9HAZ1).
The target in assay [15] is Dual specificity tyrosine-phosphorylation-regulated kinase 1A (Homo sapiens, UniProt Q13627).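 Also: measured against DYRK1A as one member of a broad kinome profiling panel.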
The target in assay [16] is T2, Protein RecA (Mycobacterium tuberculosis, UniProt P9WHJ3).
T2 sequence (P9WHJ3 whole entry): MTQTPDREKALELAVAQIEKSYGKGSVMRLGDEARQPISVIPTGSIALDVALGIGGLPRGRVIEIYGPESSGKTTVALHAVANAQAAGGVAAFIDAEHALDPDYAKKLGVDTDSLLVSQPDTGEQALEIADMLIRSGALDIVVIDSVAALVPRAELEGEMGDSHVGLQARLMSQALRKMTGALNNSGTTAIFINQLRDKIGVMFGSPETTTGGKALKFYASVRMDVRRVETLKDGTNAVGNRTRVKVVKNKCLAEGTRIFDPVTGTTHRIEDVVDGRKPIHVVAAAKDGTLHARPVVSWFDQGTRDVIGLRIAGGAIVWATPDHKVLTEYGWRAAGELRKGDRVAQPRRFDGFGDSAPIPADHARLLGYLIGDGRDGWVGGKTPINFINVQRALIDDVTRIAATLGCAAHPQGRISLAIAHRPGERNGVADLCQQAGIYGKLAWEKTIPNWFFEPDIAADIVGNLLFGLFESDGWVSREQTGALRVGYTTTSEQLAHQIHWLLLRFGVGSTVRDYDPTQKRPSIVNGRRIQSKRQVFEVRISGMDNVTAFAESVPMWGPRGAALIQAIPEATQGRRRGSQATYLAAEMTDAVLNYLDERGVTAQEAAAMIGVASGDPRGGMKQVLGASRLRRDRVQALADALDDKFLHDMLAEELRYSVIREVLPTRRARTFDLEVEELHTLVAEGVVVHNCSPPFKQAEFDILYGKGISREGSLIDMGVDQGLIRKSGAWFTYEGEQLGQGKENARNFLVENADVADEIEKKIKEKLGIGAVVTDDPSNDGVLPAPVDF
In words: Fluorescence Cell-Free Homogeneous Dose Retest to Identify Inhibitors of RecA-Intein Splicing Activity. [Related pubchem assays (depositor defined):AID2097, AID2223, AID489010, AID492950].

Chain of RAC-alpha serine/threonine-protein kinase (P31749 whole entry): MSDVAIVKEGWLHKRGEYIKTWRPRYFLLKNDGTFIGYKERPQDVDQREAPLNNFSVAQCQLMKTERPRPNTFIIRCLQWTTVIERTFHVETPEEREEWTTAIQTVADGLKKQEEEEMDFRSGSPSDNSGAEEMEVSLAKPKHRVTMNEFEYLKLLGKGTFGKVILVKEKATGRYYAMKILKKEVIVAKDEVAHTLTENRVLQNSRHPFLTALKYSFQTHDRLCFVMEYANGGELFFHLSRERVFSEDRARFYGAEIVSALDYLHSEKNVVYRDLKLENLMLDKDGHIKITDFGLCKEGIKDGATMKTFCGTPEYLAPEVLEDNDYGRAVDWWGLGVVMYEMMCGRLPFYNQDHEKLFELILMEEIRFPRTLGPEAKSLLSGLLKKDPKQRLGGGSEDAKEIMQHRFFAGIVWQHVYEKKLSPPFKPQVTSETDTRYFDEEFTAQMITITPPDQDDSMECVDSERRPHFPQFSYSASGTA
Chain of Serine/threonine-protein kinase PLK3 (Q9H4B4 whole entry): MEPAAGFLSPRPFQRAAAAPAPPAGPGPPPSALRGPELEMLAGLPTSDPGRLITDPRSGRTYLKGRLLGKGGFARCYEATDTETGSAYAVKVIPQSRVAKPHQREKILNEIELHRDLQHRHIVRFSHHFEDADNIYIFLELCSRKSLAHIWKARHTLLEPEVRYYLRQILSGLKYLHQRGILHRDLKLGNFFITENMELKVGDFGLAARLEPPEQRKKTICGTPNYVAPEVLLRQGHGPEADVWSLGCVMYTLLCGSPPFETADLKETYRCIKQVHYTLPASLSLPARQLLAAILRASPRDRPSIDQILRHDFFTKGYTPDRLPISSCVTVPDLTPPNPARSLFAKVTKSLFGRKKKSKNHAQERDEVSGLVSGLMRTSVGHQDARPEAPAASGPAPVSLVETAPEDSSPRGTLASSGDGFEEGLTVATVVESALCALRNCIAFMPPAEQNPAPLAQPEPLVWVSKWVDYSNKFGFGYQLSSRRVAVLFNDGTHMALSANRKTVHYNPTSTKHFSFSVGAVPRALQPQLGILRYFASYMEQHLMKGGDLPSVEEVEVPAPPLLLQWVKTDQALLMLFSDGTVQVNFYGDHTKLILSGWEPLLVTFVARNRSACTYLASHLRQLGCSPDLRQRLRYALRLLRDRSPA
Chain of Dual specificity mitogen-activated protein kinase kinase 1 (Q02750 whole entry): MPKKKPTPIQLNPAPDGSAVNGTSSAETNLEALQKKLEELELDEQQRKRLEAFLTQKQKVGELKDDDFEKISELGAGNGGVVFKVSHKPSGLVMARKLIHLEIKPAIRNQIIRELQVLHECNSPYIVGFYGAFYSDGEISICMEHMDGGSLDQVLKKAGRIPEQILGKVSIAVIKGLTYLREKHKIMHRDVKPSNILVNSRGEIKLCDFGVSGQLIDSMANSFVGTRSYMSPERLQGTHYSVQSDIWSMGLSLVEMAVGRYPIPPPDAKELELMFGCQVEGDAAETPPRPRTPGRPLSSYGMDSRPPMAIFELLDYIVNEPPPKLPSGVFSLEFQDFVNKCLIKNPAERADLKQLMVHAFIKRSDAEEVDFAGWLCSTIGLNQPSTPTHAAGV
Chain of Serine/threonine-protein kinase pim-1 (P11309 whole entry): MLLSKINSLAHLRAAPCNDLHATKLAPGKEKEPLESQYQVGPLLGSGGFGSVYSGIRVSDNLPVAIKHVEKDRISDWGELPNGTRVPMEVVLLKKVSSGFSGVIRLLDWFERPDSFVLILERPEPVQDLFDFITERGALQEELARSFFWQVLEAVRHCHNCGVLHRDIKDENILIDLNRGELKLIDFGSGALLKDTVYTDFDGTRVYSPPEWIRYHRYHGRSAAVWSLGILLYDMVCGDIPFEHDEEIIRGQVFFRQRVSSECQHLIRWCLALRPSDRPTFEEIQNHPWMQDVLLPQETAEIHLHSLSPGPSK
Chain of Dual specificity protein kinase CLK4 (Q9HAZ1 whole entry): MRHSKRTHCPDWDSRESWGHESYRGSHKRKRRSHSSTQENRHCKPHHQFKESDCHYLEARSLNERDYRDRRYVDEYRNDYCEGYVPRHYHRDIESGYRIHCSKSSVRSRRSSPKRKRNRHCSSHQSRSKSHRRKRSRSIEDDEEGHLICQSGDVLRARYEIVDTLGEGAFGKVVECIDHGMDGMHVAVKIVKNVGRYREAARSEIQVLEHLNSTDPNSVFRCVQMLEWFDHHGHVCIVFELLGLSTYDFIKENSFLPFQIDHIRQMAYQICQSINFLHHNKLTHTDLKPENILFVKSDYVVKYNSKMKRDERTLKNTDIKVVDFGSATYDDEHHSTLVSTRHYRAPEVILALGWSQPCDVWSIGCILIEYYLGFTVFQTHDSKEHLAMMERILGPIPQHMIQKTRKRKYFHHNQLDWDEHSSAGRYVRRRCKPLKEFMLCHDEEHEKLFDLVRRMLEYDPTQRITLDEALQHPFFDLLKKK
Chain of Dual specificity tyrosine-phosphorylation-regulated kinase 1B (Q9Y463 whole entry): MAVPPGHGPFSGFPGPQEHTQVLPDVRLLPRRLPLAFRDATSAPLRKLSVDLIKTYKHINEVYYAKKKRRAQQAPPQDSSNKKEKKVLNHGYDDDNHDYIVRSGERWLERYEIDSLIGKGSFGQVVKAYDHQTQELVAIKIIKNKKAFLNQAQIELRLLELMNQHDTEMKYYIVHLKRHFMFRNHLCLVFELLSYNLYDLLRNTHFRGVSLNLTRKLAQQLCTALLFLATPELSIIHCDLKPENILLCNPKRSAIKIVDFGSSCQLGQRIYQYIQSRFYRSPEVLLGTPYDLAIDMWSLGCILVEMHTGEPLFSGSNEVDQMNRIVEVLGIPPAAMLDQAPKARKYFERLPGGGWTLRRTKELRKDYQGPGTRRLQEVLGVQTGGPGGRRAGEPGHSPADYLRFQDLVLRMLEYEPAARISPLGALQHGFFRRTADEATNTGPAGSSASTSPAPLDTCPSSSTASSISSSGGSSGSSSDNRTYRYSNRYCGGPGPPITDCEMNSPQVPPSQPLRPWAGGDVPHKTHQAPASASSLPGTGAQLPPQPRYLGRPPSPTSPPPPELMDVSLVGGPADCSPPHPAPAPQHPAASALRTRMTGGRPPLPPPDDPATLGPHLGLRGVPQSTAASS
Chain of Fibroblast growth factor receptor 1 (P11362 whole entry, canonical isoform): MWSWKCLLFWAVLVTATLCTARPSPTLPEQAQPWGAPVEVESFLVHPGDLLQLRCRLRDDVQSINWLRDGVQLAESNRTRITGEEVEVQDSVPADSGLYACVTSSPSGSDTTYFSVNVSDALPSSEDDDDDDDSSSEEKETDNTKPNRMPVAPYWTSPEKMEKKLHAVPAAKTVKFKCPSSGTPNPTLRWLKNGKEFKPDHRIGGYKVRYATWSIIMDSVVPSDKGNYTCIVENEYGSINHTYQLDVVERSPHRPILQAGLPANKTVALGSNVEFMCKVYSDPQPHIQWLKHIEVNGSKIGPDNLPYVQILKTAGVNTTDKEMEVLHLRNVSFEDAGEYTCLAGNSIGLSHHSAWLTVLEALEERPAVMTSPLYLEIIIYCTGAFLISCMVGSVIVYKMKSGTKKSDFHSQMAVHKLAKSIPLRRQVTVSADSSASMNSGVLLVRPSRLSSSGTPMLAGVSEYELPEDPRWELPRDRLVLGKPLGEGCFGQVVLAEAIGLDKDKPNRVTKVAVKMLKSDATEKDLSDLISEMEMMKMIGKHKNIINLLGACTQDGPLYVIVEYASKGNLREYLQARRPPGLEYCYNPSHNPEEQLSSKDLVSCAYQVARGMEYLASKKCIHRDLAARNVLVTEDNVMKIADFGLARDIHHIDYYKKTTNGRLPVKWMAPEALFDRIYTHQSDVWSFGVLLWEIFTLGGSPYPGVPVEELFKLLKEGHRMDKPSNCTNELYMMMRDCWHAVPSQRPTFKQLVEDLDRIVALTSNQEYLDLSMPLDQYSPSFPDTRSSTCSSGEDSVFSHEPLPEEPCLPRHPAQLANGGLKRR
Chain of Cyclin-dependent kinase 8 (P49336 whole entry): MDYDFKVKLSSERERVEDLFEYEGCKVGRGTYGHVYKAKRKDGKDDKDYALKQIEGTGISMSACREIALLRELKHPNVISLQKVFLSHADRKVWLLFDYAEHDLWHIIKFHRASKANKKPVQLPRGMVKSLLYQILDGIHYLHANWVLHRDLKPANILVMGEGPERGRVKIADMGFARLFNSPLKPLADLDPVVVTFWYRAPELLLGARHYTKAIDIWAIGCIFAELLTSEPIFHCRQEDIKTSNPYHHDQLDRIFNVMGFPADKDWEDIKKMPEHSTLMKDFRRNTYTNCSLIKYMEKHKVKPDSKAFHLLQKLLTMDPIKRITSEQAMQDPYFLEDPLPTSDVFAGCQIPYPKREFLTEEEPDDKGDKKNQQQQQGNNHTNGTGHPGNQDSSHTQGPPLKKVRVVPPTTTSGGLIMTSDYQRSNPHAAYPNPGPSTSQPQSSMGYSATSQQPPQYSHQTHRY
Chain of Casein kinase I isoform alpha (P48729 whole entry, canonical isoform): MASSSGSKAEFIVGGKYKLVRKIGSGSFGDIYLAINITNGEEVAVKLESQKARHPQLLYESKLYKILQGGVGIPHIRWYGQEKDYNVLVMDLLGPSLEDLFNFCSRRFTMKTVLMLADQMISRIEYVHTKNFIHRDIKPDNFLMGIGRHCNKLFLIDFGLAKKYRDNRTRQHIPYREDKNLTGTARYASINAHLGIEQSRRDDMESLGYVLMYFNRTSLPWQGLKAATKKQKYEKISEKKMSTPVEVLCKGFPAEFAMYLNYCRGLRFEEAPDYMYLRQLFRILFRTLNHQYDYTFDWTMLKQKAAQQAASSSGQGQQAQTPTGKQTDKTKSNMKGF

With `COc1cc2c(cc1F)C(c1ccccc1Cl)=Nc1c(n[nH]c1C)N2` [RG-1530], the Ki (as a rule, the dissociation constant of the complex between target and ligand, obtained from inhibition or displacement) was 2 µM (active) in assay [1]; 6.31 µM (active) in [2]; > 10 µM (inactive) in [3]; 0.0126 µM (active) in [4]; > 1.26 µM (inactive) in assay [5]; > 5.01 µM (inactive) in assay [6]. Further, the Ki is 0.0501 µM (active) in assay [7]; > 5.01 µM (inactive) in assay [8]; > 7.94 µM (inactive) in [9]; 0.0316 µM (active) in [10]; > 7.94 µM (inactive) in assay [11]; > 3.98 µM (inactive) in assay [12]. For the same compound, the results for the Ki in [13], in assay [14] and in [15] were > 3.16 µM (inactive), 1 µM (active) and > 0.794 µM (inactive), respectively.
For the compound `O=C(O)c1ccc(NC2=C(Cl)C(=O)c3ccccc3C2=O)cc1`, the EC50 (in general, the midpoint of the concentration-response curve) in assay [16] is 1.22 µM (active).
Consider `O=C(O)c1ccc2c3c(ncnc13)-c1ccccc1C2=O`, for which the EC50 in [16] is 1.77 µM (active).
Turning to `Cc1nn(C)c2sc3c(=O)[nH]cnc3c12`, the Ki in assay [1] is 100 µM (active); in assay [2], > 79.4 µM (inactive); in [3], > 100 µM (inactive); in [4] it was > 39.8 µM (inactive); in assay [5], 50.1 µM (active); in assay [6], 31.6 µM (active). Further, the Ki in assay [7] is > 50.1 µM (inactive); in [8], 50.1 µM (active); in assay [9] it was 2.51 µM (active); in assay [10], 12.6 µM (active); in [11] it was > 79.4 µM (inactive); in [12] it was 25.1 µM (active). In addition, the figures for the Ki in assay [13], in assay [14] and in [15] were 50.1 µM (active), 3.16 µM (active) and 25.1 µM (active), respectively.
Consider `Cc1ccc2nccc(NC(=O)Nc3cccc(C(F)(F)F)n3)c2c1`, for which the Ki in [1] was > 3.16 µM (inactive); in assay [2] it was > 7.94 µM (inactive); in assay [3], > 10 µM (inactive); in assay [4], > 3.98 µM (inactive); in assay [5] it was > 1.26 µM (inactive); in [6] it was > 3.16 µM (inactive). Further, the Ki in [7] was > 3.98 µM (inactive); in assay [8] it was > 5.01 µM (inactive); in [9], 0.316 µM (active); in assay [10], > 2.51 µM (inactive); in [11], > 7.94 µM (inactive); in assay [12] it was 0.2 µM (active). The Ki is > 7.94 µM (inactive) in assay [13], 0.1 µM (active) in assay [14] and > 1 µM (inactive) in [15].
As for `COC(=O)CCS(=O)(=O)c1nc(-c2ccccc2)cc(C(F)(F)F)n1`, the EC50 in [16] is 4.56 µM (active).
`Cc1c(/N=C2\C=CC(=O)c3ccccc32)c(=O)n(-c2ccccc2)n1C`: the EC50 in assay [16] is 0.768 µM (active).
